Measured values published in patent publication US12667568B2, “Compositions and methods for the treatment and diagnosis of cancer” (The General Hospital Corporation, priority 2020, dated 2026).

Tests used:
Assay type in all cases: cell-based
[1] = test system: U2OS (EJ5-GFP) cells; test: EJ5-GFP NHEJ reporter assay; conditions: 2.5 μM/L, 6 h pre-treatment, TRDMT1 wild type cells
Method: FIGS. 6A-6E show TRDMT1 Inhibitors specifically sensitizes cells to DNA damage agents. (FIG. 6A) SCE WT cells were transfected with TA-KR and were cultured with 2.5 μM/L compound YW-1842 or not for 6 hours, m^5C (n=3, 50 cells per replicated, Mean±SD) was stained and quantified. DR-GFP (FIG. 6B) or EJ5-GFP (FIG. 6C) cells were pre-treated with 2.5 μM/L compound YW-1842 for 6 h or TRDMT1 siRNA for 48 h, or DMSO. Then the cells were transfected with NLS-I-SceI plasmid to induce DSB. The efficiency of HR (FIG. 6B) or NHEJ (FIG. 6C) was analyzed by flow-cytometry (n=3, Mean f SD). (FIG. 6D) After seeding, MCF-7, HCC1954, and HCC1937 cells were pre-treated with or without 2.5 μM/L compound YW-1842 for 6 h, then cultured with chemotherapy drugs (1 μM/L Cisplatin; 1 μM/L ATRi AZ20; […]; 1 μM/L PARPi Olaparib for 10 days. The survival rate of these cells was analyzed (n=3, Mean±SD). (FIG. 6E) TRDMT1 KO U2OS cells were transfected with GFP-TRDMT1^WT or GFP-TRDMT1^G155V with or without 2.5 μM/L compound YW-1842, the survival rate of these cells after IR or Cisplatin was shown (n=3, Mean±SD).
Using a previously described method[Lan, L. et al. The ACF1 complex is required for DNA double-strand break repair in human cells. […] The GFP signal arising from the recombination (HR) or non-homologous end joining (NHEJ) events were measured by flow cytometry.

[2] = test system: γ-H2AX foci; test: γ-H2AX foci clearance after damage; conditions: 2.5 μM/L YW-1842, cells after IR
Method: FIGS. 6F-6G show TRDMT1 inhibitor YW-1842 delays the repair of DSBs at the transcribed genome. (FIG. 6F) U2OS or MCF7 cells were treated with or without compound YW-1842 at the indicated concentration. […]
Cells for immunofluorescence observation were fixed in 4% PFA (Affymetrix, 19943 1 LT) at room temperature for 15 min and further treated with 0.2% triton for 10 min. They were then blocked by 3% BSA (SIGMA, A-7030) at room temperature for 1 h. Primary antibody for RAD51(ab63801, Abcam, 1:200)), RAD52(sc-365341, Santa Cruz, CA, USA, 1:500), TRIM28 (ab10484, Abcam, 1:500), γH2AX ser139 (JBW301, 05-636, EMD Millipore, 1:200), were incubated with cells at 4° C. overnight. After washing with 0.05% PBS-Tween (PBST), the cells were incubated with secondary antibody for 1 h at room temperature.

[3] = test system: HST578, MBAMD231, HCC1937, HCC1954 cancer cells; test: Cell survival assay, TRDMT1i alone (Example 19)
Method: FIGS. 14A-14C show TRDMT1i alone reduce cancer cell survival in a dose-dependent manner. (FIG. 14A) Survival rate of HR proficient (HR+) HST578 cancer cells with and without siBRCA1 and/or TRDMT1i YW-1842 at indicated dose. The survival rate of these cells was analyzed (n=3, Mean±SD). (FIG. 14B) Survival rate of MBAMD231 (HR+) and HCC1937 (HRD) cells. The survival rate of these cells was analyzed (n=3, Mean±SD). (FIG. 14C) Cell survival rate in different cancer cell lines via colony-forming assay with the treatment of Imatinib at indicated dose (n=3, mean+/−S.D.). Cell lines are listed in order with the expression level from SYCP2high to SYCP2low.
Cells were seeded in each 6-cm dish and cultured as described above. They were treated with drugs with indicated dose in medium after seeding. After 7-10 days, colonies were fixed and stained with 0.3% crystal violet in methanol, and the number of colonies was counted manually.

## COc1cc2nc(-n3cc(-c4ccc(S(C)(=O)=O)cc4)cn3)nc(-c3ccsc3)c2cc1OC [YW-1842, 6,7-dimethoxy-2-(4-(4-(methylsulfonyl)phenyl)-1H-pyrazol-1-yl)-4-(thiophen-3-yl)quinazoline]
[1]
  non-homologous end joining (NHEJ) efficiency: no obvious changes
[2]
  DNA repair efficiency, clearance of γ-H2AX foci: delayed clearance of γ-H2AX foci
[3]; HCC1937 (HRD) versus MBAMD231 (HR+)
  sensitivity of HR deficient cells to TRDMT1i alone: more sensitive
[3]; HCC1954, HRD, high SYCP2
  killing of HCC1954: efficiently killed HCC1954
[3]; HR-proficient HST578 cells
  cancer cell survival, TRDMT1i alone: kills HR-proficient cancer cells HST578 in a dose-dependent manner
[3]; HST578 cells with siBRCA1
  TRDMT1i sensitivity on BRCA1 knockdown: significantly increased TRDMT1i sensitivity
[3]; cell lines ordered SYCP2high to SYCP2low (FIG. 14C)
  killing across cancer cell lines by SYCP2 level and HR status: killed SYCP2-high cancer cell lines and HR deficient cells the most efficiently
